Each structure is given as a SMILES string. In brackets after ≈: the same amount, converted by molar mass. Where two headings read alike, the source gives them in different places.

The source of these data is PMC10490044, “Chromogenic Assay Is More Efficient in Identifying α-Amylase Inhibitory Properties of Anthocyanin-Rich Samples When Compared to the 3,5-Dinitrosalicylic Acid (DNS) Assay” (Molecules, 2023).

The target in one test is pancreatic alpha-amylase. The settings on record: cited from earlier work.
The target in test [1] is T1, pancreatic α-amylase (PPA) (Sus scrofa, UniProt P00690).
T1 construct: purchased Sigma-Aldrich Co., Ltd., Dorset, UK
T1 sequence (P00690 16-511): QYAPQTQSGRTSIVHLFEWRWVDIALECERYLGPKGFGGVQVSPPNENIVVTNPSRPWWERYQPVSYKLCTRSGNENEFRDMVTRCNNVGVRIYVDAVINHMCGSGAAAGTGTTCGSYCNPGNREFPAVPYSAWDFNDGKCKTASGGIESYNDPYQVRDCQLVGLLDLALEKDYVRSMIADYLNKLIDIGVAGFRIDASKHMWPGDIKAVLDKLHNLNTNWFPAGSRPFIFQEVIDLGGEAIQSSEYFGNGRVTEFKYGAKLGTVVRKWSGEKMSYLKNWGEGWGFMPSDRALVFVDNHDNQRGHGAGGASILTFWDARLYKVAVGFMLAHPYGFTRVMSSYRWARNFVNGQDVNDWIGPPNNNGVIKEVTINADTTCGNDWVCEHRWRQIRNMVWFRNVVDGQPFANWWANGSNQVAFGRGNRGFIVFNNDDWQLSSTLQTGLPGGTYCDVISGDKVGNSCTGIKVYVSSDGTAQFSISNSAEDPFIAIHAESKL
Put plainly: Mode of inhibition / enzyme kinetics, Lineweaver–Burk plots with CNPG3. In kind it is biochemical, porcine. The settings on record: for mode of inhibition: CNPG3 0–5 mM, PPA 1 U/mL; for effect of inhibitor on Vmax: Lineweaver–Burk plot. As to the method:
(§1) In preliminary experiments, the optimum enzyme and substrate concentrations for the assay were determined using different concentrations of α-amylase (0.25, 0.5, and 1 U/mL) and CNPG3 (0, 0.625, 1.25, 2.5, and 5 mM). The linearity of enzyme reaction was monitored over 20 min under optimized enzyme and substrate concentrations, and incubation time for enzymatic reaction was defined. […] The rate of enzymatic reaction (V) was calculated by dividing the change in absorbance (at 405 nm) over time. The Lineweaver–Burk double reciprocal plot was obtained by plotting the 1/V against reciprocal of substrate (1/[S]), and Km and Vmax were calculated.
A Lineweaver–Burk plot was constructed for every inhibitor, and Km and Vmax were calculated.
All experiments were conducted at least in triplicates and analysed using Prism software program v. 9 (GraphPad Software, San Diego, CA, USA). […] The IC50 values were then obtained from the respective curve. The mode of enzyme inhibition was graphically determined using the Lineweaver–Burk plot through nonlinear regression of all data sets at once using GraphPad Prism software.

Another test concerns the target human pancreatic amylase. The arrangement: method as in Xie et al. 28. The settings on record: similar substrate; ref Xie et al. 28; cited from earlier work.
The next test concerns the target T2, α-amylase (Sus scrofa, UniProt P00690).
T2 construct: purchased Sigma-Aldrich Co., Ltd., Dorset, UK
T2 sequence (P00690 16-511): T1 sequence (P00690 16-511)
In words: α-Amylase inhibition by anthocyanin metabolites (assay not stated). It counts as biochemical. The settings on record: high concentrations of 1000 μg/mL.

In test [2] the target is T3, porcine pancreatic α-amylase (PPA) (Sus scrofa, UniProt P00690).
T3 construct: purchased Sigma-Aldrich Co., Ltd., Dorset, UK
T3 sequence (P00690 16-511): T1 sequence (P00690 16-511)
Put plainly: Direct chromogenic assay, CNPG3 as substrate. It counts as biochemical. As to the method: The inhibition of α-amylase activity was measured according to the method described by Kalita, Holm, LaBarbera, Petrash, and Jayanty with some modifications. […] This was followed by the addition of 50 µL of 2 mM CNPG3 substrate, diluted in phosphate buffer. The change in absorbance, indicating the release of p-nitrophenol as a reaction product, was recorded in 1 min intervals at 405 nm over a 10 min period (at 37 °C) using a Tecan Spark 10 M microplate reader. Reaction product scans (360–600 nm) were performed at the end of each experiment. Enzyme activity and inhibition (%) were calculated from the absorbance difference of each sample, in reference to the non-inhibited control.
as §1

In test [3] the target is T3, porcine pancreatic α-amylase (PPA). Particulars: cited from earlier work; for mode of inhibition: DNS method; for IC50: ref Sui, Zhang, and Zhou 35.
The target in another test is human salivary amylase. Particulars: reference not given; cited from earlier work.
The target in test [4] is T3, porcine pancreatic α-amylase (PPA). In words: DNS assay, amylose as substrate. The settings on record: concentrations up to 435 μM. It counts as biochemical.
Protocol: The samples were then placed in a water bath (100 °C, 10 min) to stop the enzyme reaction, subsequently transferred to ice, cooled down, and centrifuged at 4000× g for 5 min.
In order to remove potentially interfering compounds such as anthocyanins and other polyphenols that might react with the DNS reagent, solid phase reaction (SPE) was applied [20]. Briefly, Oasis MAX cartridges (30 mg) were preconditioned (1 mL water, 1 mL methanol) and then dried under vacuum for 10 min. The samples that underwent the enzymatic reaction above were applied to the cartridge, and the flow through was collected. Then, 1 mL DNS reagent was added to each SPE-purified flow through sample (500 μL), and samples were heated for 10 min at 100 °C to aid the reaction. Subsequently, samples were cooled down to room temperature, diluted to an appropriate absorbance range, transferred to wells in 96-well plates (2 × 250 µL per sample), and absorbance was recorded at 540 nm using Tecan Spark 10 M multimode microplate reader (TECAN, Mannedorf, Switzerland). Enzyme inhibition was calculated as a percentage of the 100% activity control (absence of inhibitor) and considering individual sample background (absence of enzyme and substrate).
[5] abbreviates: extracts per total anthocyanin content.

For the compound `C[C@H]1O[C@H](O[C@H]2[C@H](O)[C@@H](O)[C@@H](O[C@H]3[C@H](O)[C@@H](O)C(O)O[C@@H]3CO)O[C@@H]2CO)[C@H](O)[C@@H](O)[C@@H]1N[C@H]1C=C(CO)[C@@H](O)[C@H](O)[C@H]1O` (stereo partly shown) [acarbose], the “IC50, DNS assay” value on pancreatic alpha-amylase (ref 15) is reported as 11.7 µg/mL (≈ 18.1 µM). On pancreatic alpha-amylase (ref 27), the “IC50, DNS assay” value is 77.5 µg/mL (≈ 120 µM). In test [1], the mode of inhibition result is “uncompetitive enzyme inhibition” and the “effect of inhibitor on Vmax” value is “decreased”. Moreover, the “IC50, human pancreatic amylase” value on human pancreatic amylase was 0.47 µg/mL (≈ 0.728 µM).
For `O=C(O)c1cc(O)c(O)c(O)c1` [gallic acid], at α-amylase, the “inhibition of α-amylase” value is “unable to determine inhibition”.
In the case of `OC[C@H]1O[C@@H](Oc2cc3c(O)cc(O)cc3[o+]c2-c2ccc(O)c(O)c2)[C@H](O)[C@@H](O)[C@H]1O` [Cyanidin-3-O-galactopyranoside], in test [1], the mode of inhibition result is “competitive inhibitor” and the “effect of inhibitor on Vmax” value is “remained constant”. In addition, half-maximal inhibition in test [2] (IC50) was put at 414 µM. Also, the “Direct Chromogenic Assay IC50” value in test [2] (setting [5]) worked out at 414 ± 2.6 µg/mL.
As for `O=[N+]([O-])c1ccc(O[C@H]2O[C@H](CO)[C@@H](O[C@H]3O[C@H](CO)[C@@H](O[C@H]4O[C@H](CO)[C@@H](O)[C@H](O)[C@H]4O)[C@H](O)[C@H]3O)[C@H](O)[C@H]2O)c(Cl)c1` [CNPG3, 2-chloro-4 nitrophenyl α-D-maltotrioside], the “Km value (Michaelis constant) of substrate” value in test [1] (no inhibitor) is 4.4 mg/mL.
Take `OC[C@H]1O[C@@H](Oc2cc3c(O[C@@H]4O[C@H](CO)[C@@H](O)[C@H](O)[C@H]4O)cc(O)cc3[o+]c2-c2ccc(O)c(O)c2)[C@H](O)[C@@H](O)[C@@H]1O` [cyanidin-3,5-diglucoside]: the “IC50, DNS assay” value on pancreatic alpha-amylase (ref 27) is reported as above 600 µg/mL. For the same compound, in test [3], the mode of inhibition entry is given as “competitively”.
Turning to `C[C@@H]1O[C@@H](OC[C@H]2O[C@@H](Oc3cc4c(O)cc(O)cc4[o+]c3-c3ccc(O)c(O)c3)[C@H](O)[C@@H](O)[C@@H]2O)[C@H](O)[C@H](O)[C@H]1O` [cyanidin-3-rutinoside], the IC50 on pancreatic alpha-amylase (ref 15, read-out: IC50, α-amylase) was 24.4 µM. Besides, in test [3], the mode of inhibition result is on record as “competitively”.
In the case of `O=C(O)c1ccc(O)c(O)c1` [protocatechuic acid], the “inhibition of α-amylase” value at α-amylase is reported as “unable to determine inhibition”.
With `OC[C@H]1O[C@@H](Oc2cc3c(O)cc(O)cc3[o+]c2-c2ccc(O)c(O)c2)[C@H](O)[C@@H](O)[C@@H]1O` [cyanidin-3-glucoside], the “IC50, DNS assay” value on pancreatic alpha-amylase (ref 27) is recorded as 145.5 µg/mL. Also, the figures for the IC50 (at human salivary amylase; in test [3]) were 180 ± 20 µM and 24 ± 3 µM, respectively. Also, in test [3], the mode of inhibition entry is “competitively”.
In the case of `COc1cc(-c2[o+]c3cc(O)cc(O)c3cc2O[C@@H]2O[C@H](CO)[C@@H](O)[C@H](O)[C@H]2O)cc(OC)c1O` [malvidin-3-glucoside], at human salivary amylase, the IC50 is 675 ± 73 µM.
For `O=C(/C=C/c1ccc(O)c(O)c1)O[C@@H]1C[C@](O)(C(=O)O)C[C@@H](O)[C@H]1O` [chlorogenic acid], at α-amylase, the “inhibition of α-amylase” value was “unable to determine inhibition”.
For the compound `Oc1cc(O)c2cc(O)c(-c3ccc(O)c(O)c3)[o+]c2c1` [Cyanidin, cyanidin], in test [4], the “DNS Assay % inhibition” value was found to be 7%. Besides, the “IC50, DNS assay” value on pancreatic alpha-amylase (ref 27) is 109.2 µg/mL. The IC50 in test [2] and in test [2] (setting [5]) was 491 µM throughout.
On to `COc1cc(-c2[o+]c3cc(O)cc(O)c3cc2O[C@@H]2O[C@H](CO)[C@@H](O)[C@H](O)[C@H]2O)ccc1O` [peonidin-3-glucoside], for which, in test [3], the mode of inhibition entry was “competitively” and the half-inhibitory concentration (IC50) was 75 ± 7 µM.
